# Data as given in patent US7175872B2, “Pyridinium-Betain compounds for use as taste modulators” (Nestec S.A., priority 2002, dated 2007).
# Where a name gives a salt, the structure may show the parent alone.
# Assays:
# Assay type in all cases: in vivo
# sweet taste of L-alanine = assay: Sweet taste detection threshold of L-alanine/Pyridinium-Betaine mixtures (triangle test, sensory panel); conditions: mixture with L-alanine; for Threshold decrease: vs L-alanine in water 12.5 mmol/L
# Description: • Sensory panel training: […] Sensory analyses were performed in a sensory panel room at 22-25° C. on three different sessions. • Taste thresholds: The taste thresholds of the tastants or mixtures containing basic tastants plus Pyridinium-Betains were determined in a triangle test using Evian® mineral water as the solvent at a defined pH ([…] and H.-D. Belitz, Z. Lebensm. Unters. Forsch. 1975, 159, 65-72). The samples (3 mL) were presented in order of increasing concentrations (serial 1:1 dilutions). The threshold values evaluated in two different sessions were averaged. […] The taste intensities of aqueous (Evian®) solutions containing a basic tastant, such as glucose and MSG, for example, in constant concentrations and the compounds of the general formula (A), for example […], in various concentrations were compared with those of a solution containing the basic tastant only. To achieve this, triangle tests were performed with two glass vials containing the basic tastant in constant concentrations, and one glass vial containing a stepwise 1:1-diluted mixture of basic […]. […] The relative taste strength (taste enhancing factor) of a mixture containing the basic […] was related to the basic tastants glucose, MSG, or other tastants, respectively, as standard substances, and was determined as the ratio of the concentrations c of iso-intensely tasting solutions of the basic tastant, such as glucose (glc), and the mixture containing tastant plus Pyridinium-Betain, […])=[…] […] This taste enhancing effect is illustrated in examples. Besides the two carbohydrates, the sweet amino acid L-alanine was also tested with […]. Again, the best impact on sweet taste perception was found for the mixture at pH 9.0, resulting in an 8-fold lower threshold.
# umami taste of MSG [1] = assay: Umami taste detection threshold of MSG/Pyridinium-Betaine mixtures (triangle test, sensory panel); conditions: equimolar mixture with MSG; for Threshold decrease: vs MSG in water 1.5 mmol/L
# Description: • Sensory panel training: […] Sensory analyses were performed in a sensory panel room at 22-25° C. on three different sessions. • Taste thresholds: The taste thresholds of the tastants or mixtures containing basic tastants plus Pyridinium-Betains were determined in a triangle test using Evian® mineral water as the solvent at a defined pH ([…] and H.-D. Belitz, Z. Lebensm. Unters. Forsch. 1975, 159, 65-72). The samples (3 mL) were presented in order of increasing concentrations (serial 1:1 dilutions). The threshold values evaluated in two different sessions were averaged. […] The taste intensities of aqueous (Evian®) solutions containing a basic tastant, such as glucose and MSG, for example, in constant concentrations and the compounds of the general formula (A), for example […], in various concentrations were compared with those of a solution containing the basic tastant only. To achieve this, triangle tests were performed with two glass vials containing the basic tastant in constant concentrations, and one glass vial containing a stepwise 1:1-diluted mixture of basic […]. […] The relative taste strength (taste enhancing factor) of a mixture containing the basic […] was related to the basic tastants glucose, MSG, or other tastants, respectively, as standard substances, and was determined as the ratio of the concentrations c of iso-intensely tasting solutions of the basic tastant, such as glucose (glc), and the mixture containing tastant plus Pyridinium-Betain, […])=[…] […] This taste enhancing effect is illustrated in examples. Pyridinium-Betaines not only enhance the sweet taste perception, but also the umami taste.
# umami taste of MSG [2] = assay: Iso-intensity: relative umami taste of MSG/Alapyridaine mixtures; conditions: 1.5 mmol/kg MSG and 6.0 mmol/kg Alapyridaine vs 1.5 mmol/kg MSG
# Description: • Sensory panel training: […] Sensory analyses were performed in a sensory panel room at 22-25° C. on three different sessions. • Taste thresholds: The taste thresholds of the tastants or mixtures containing basic tastants plus Pyridinium-Betains were determined in a triangle test using Evian® mineral water as the solvent at a defined pH ([…] and H.-D. Belitz, Z. Lebensm. Unters. Forsch. 1975, 159, 65-72). The samples (3 mL) were presented in order of increasing concentrations (serial 1:1 dilutions). The threshold values evaluated in two different sessions were averaged. […] The taste intensities of aqueous (Evian®) solutions containing a basic tastant, such as glucose and MSG, for example, in constant concentrations and the compounds of the general formula (A), for example […], in various concentrations were compared with those of a solution containing the basic tastant only. […] The relative taste strength (taste enhancing factor) of a mixture containing the basic […] was related to the basic tastants glucose, MSG, or other tastants, respectively, as standard substances, and was determined as the ratio of the concentrations c of iso-intensely tasting solutions of the basic tastant, such as glucose (glc), and the mixture containing tastant plus Pyridinium-Betain, […])=[…] […]
compound,measurement,setting,value
"CC(C(=O)[O-])[n+]1cc(O)ccc1CO (centres unmarked) [Alapyridaine, N-(1-carboxyethyl)-3-hydroxy-6-hydroxymethyl-pyridinium inner salt]",reduction of the sweet threshold,sweet taste of L-alanine; pH 5.0,only a slight reduction
same,Sweet detection threshold,sweet taste of L-alanine; pH 6.0,6.0 mmol/kg water
same,Taste quality,sweet taste of L-alanine; pH 6.0,sweet
same,Threshold decrease,sweet taste of L-alanine; pH 6.0,2.0
same,Sweet detection threshold,sweet taste of L-alanine; pH 7.0,3.0 mmol/kg water
same,Taste quality,sweet taste of L-alanine; pH 7.0,sweet
same,Threshold decrease,sweet taste of L-alanine; pH 7.0,4
same,Sweet detection threshold,sweet taste of L-alanine; pH 9.0,1.5 mmol/kg water
same,Taste quality,sweet taste of L-alanine; pH 9.0,sweet
same,Threshold decrease,sweet taste of L-alanine; pH 9.0,8
same,Taste quality,umami taste of MSG [1]; pH 5.0,umami
same,Umami detection threshold,umami taste of MSG [1]; pH 5.0,0.4 mmol/kg water
same,Threshold decrease,umami taste of MSG [1]; pH 5.0,4.0
same,Taste quality,umami taste of MSG [1]; pH 7.0,umami
same,Umami detection threshold,umami taste of MSG [1]; pH 7.0,0.4 mmol/kg water
same,Threshold decrease,umami taste of MSG [1]; pH 7.0,4.0
same,Taste quality,umami taste of MSG [1]; pH 9.0,umami
same,Umami detection threshold,umami taste of MSG [1]; pH 9.0,0.4 mmol/kg water
same,Threshold decrease,umami taste of MSG [1]; pH 9.0,4.0
same,maximum umami-taste intensity (iso-intensity),umami taste of MSG [2],4 -fold
